{
  "source": "patent US8956824B2",
  "about": "“Methods for identifying allosteric modulators of ship polypeptides” (British Columbia Cancer Agency Branch, priority 2006, dated 2015)",
  "key": {"LPS-induced plasma TNFα": {"test_system": "LPS-induced plasma TNFα", "assay": "Mouse septicemia model", "assay_type": "in vivo", "conditions": "for plasma TNFα level after LPS challenge: oral, 30 min prior to IP 2 mg/kg LPS, blood 2 h later, AQX-016A 20 mg/kg", "from_the_text": "Mouse septicemia model. […] Blood was drawn 2 hrs later for determination of plasma TNFα by ELISA. Results are representative of 3 independent experiments."}, "[1]": {"target": "T1, C2 domain deleted (ΔC2) SHIP1 enzyme (Mus musculus, UniProt Q9ES52, DEL725-860/G861A/K862A/M863A)", "T1 construct": "Full length, wild-type SHIP1 enzyme (wt) or SHIP1 enzyme in which the PH or C2 domains were deleted; made in house; 293T cells are stated only for the wild-type enzyme", "T1 sequence (Q9ES52 with tags, fused parts or gaps DEL725-860/G861A/K862A/M863A limits assumed)": "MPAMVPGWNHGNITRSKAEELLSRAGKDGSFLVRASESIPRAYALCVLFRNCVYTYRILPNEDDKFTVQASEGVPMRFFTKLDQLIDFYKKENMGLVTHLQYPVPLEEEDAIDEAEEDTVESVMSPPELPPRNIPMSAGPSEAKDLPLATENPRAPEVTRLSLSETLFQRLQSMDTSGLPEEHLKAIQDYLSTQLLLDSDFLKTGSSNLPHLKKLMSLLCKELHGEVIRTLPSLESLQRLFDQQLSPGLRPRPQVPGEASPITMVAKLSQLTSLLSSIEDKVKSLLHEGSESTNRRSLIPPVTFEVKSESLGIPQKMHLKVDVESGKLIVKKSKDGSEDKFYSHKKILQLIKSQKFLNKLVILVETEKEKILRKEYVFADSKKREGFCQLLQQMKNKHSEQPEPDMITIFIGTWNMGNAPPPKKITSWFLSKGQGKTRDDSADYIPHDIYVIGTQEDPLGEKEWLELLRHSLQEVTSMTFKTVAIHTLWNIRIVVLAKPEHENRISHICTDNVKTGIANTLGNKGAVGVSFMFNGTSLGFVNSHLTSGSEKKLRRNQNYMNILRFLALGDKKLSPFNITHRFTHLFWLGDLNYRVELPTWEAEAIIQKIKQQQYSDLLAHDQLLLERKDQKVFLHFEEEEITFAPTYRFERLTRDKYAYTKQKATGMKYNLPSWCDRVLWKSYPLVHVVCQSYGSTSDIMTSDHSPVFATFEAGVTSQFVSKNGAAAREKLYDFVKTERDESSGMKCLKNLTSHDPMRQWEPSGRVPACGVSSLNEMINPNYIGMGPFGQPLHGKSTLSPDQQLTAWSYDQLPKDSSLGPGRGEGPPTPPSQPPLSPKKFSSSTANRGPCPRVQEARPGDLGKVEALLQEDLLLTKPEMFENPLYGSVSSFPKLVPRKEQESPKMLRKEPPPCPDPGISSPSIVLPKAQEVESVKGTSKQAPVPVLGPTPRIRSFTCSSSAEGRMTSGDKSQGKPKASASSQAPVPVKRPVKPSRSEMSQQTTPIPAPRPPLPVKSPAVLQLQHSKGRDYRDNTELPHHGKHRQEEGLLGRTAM", "assay": "In vitro SHIP enzyme assay, C2 domain deleted SHIP1", "assay_type": "biochemical", "conditions": "FIG. 4B, FIG. 10", "from_the_text": "The mouse SHIP1 ΔC2 domain deletion mutant was generated by a standard PCR-based methodology using the primer pairs listed above, which in addition to being complementary to sequences immediately upstream and downstream of the C2 domain (amino acid residues 725 to 863), introduces a NotI restriction site. The PCR-products were digested with ClaI and NotI, and NotI and XbaI for the upstream and downstream fragments, respectively. Products were then resolved and imaged on a 1% agarose gel containing ethidium bromide and the appropriate sized fragments excised and purified using a column gel extraction kit (Qiagen, Mississauga, ON). In parallel, pME18S plasmid containing the cDNA for N-terminal His6-tagged SHIP1 was digested with ClaI and NotI, resolved and purified as before. Upstream fragment, downstream fragment and digested pME18S-SHIP plasmid were ligated to yield a plasmid coding for SHIP1 with the C2 domain deleted. An N-terminal His6 C2 domain was also generated by PCR using the primer pair indicated above and the resulting product inserted into the pET28C bacterial expression vector using EcoRI and NdeI restriction sites.\nIn vitro SHIP enzyme assay. The SHIP enzyme assay was performed in 96-well microtitre plates with 10 ng of enzyme/well in a total volume of 25 μL of 20 mM Tris HCl, pH 7.5 and 10 mM MgCl2. SHIP1 enzyme was incubated with test extracts (provided in DMSO) or vehicle for 15 mM at 23° C. before the addition of 100 μM inositol-1,3,4,5-tetrakisphosphate (Echelon Biosciences Inc, Salt Lake City, Utah). The reaction was allowed to proceed for 20 min at 37° C. and the amount of inorganic phosphate released assessed by the addition of Malachite Green reagent followed by an absorbance measurement at 650 nm (15). SHIP2 enzyme was purchased from Echelon Biosciences (Salt Lake City, Utah) and an equivalent amount of inositol phosphatase activity was used in the in vitro enzyme assay. Enzyme data are expressed as the mean of triplicates+/−SEM. Experiments were performed at least 3 times."}},
  "note": "“Also recorded” adds a separate entry of the source.",
  "data": [
    {"compound": "Cc1cc(O)c(O)c2c1[C@]1(C)CC[C@H]3C(C)(C)CCC[C@]3(C)[C@H]1C2", "note": "[AQX-016A]", "values": [
      {"measurement": "bioavailability", "setting": "LPS-induced plasma TNFα; concluded from septicemia (oral) and cutaneous anaphylaxis (topical) models", "value": "both orally and topically bioavailable"},
      {"measurement": "plasma TNFα level after LPS challenge", "setting": "LPS-induced plasma TNFα", "value": "reduced the level of TNFα to the same extent as the control"}
    ]},
    {"compound": "Cc1cc(O)cc2c1[C@]1(C)CC[C@H]3C(C)(C)CCC[C@]3(C)[C@H]1C2", "note": "[AQX-MN100]", "values": [
      {"measurement": "plasma TNFα level after LPS challenge", "setting": "LPS-induced plasma TNFα", "value": "efficiently inhibited the LPS-induced elevation of plasma TNFα levels; also recorded: inhibits LPS-induced plasma TNFα levels in mice"},
      {"measurement": "activation of SHIP1 with C2 domain deleted", "setting": "[1]", "value": "impaired the ability of SHIP1 to be activated; also recorded: abrogates the ability of SHIP1 to be activated"}
    ]},
    {"compound": "phosphatidylinositol-3,4-bisphosphate [PI-3,4-P2, reference compound]", "values": [
      {"measurement": "activation of SHIP1 with C2 domain deleted", "setting": "[1]", "value": "impaired the ability of SHIP1 to be activated"},
      {"measurement": "activation of SHIP1 with C2 domain deleted", "setting": "[1]; listed as PI(3,4)P2", "value": "abrogates ability to be activated"}
    ]}
  ]
}
